According to patent publication US8796289B2 (AbbVie Inc., priority 2011, dated 2014):

biological target: GST-tagged-Wee1 kinase (Homo sapiens, UniProt P30291); assay: Wee1 time-resolved fluorescence equilibrium binding assay (displacement of Oregon Green-labeled ATP-competitive kinase probe)
Description: Wee1 kinase was assayed using a time-resolved fluorescence equilibrium binding assay monitoring displacement of a rapidly reversible Oregon Green-labeled ATP-competitive kinase probe (N-(2-(2-(2-(4-(4-(5-chloro-4-(2-(1-hydroxycyclobutyl)thiazol-5-yl)-1H-pyrrolo[2,3-b]pyridin-2-yl)phenyl)piperazin-1-yl)ethoxy)ethoxy)ethyl)-2′,7′-difluoro-3′,6′-dihydroxy-3-oxo-3H-spiro[isobenzofuran-1,9′-xanthene]-5-carboxamide) by competitive Wee1 inhibitors.

Sequence of GST-tagged-Wee1 kinase (P30291 whole entry): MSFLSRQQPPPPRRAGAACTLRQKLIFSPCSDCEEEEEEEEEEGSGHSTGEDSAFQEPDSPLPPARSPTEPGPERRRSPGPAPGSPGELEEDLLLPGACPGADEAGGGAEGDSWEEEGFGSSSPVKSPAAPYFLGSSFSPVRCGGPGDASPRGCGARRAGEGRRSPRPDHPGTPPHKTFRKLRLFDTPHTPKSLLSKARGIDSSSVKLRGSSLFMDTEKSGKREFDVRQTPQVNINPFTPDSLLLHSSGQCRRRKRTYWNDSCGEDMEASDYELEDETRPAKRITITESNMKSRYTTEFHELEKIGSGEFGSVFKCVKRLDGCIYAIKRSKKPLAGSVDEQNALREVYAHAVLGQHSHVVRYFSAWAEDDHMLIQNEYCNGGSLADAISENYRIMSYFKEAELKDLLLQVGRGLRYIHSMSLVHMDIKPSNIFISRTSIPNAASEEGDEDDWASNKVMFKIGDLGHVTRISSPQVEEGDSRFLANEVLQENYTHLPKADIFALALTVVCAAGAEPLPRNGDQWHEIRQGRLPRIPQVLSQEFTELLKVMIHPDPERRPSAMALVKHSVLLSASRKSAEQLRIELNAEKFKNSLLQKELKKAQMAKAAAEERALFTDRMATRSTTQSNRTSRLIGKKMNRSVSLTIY

Row | Ki [nM] | SMILES
1 | > 3140 | O=c1c2cnc(Nc3ccc(S(=O)(=O)N4CCOCC4)cc3)nc2c(-c2cccs2)nn1-c1ccccc1Cl [Example 165, 6-(2-chlorophenyl)-2-{[4-(morpholin-4-ylsulfonyl)phenyl]amino}-8-(2-thienyl)pyrimido[4,5-d]pyridazin-5(6H)-one]
2 | 0.4 | CN1CCc2ccc(Nc3ncc4c(=O)n(-c5ccccc5Cl)nc(-c5cccs5)c4n3)cc2C1 [Example 167, 6-(2-chlorophenyl)-2-[(2-methyl-1,2,3,4-tetrahydroisoquinolin-7-yl)amino]-8-(2-thienyl)pyrimido[4,5-d]pyridazin-5(6H)-one]
3 | 2 | O=C1CCCN1c1ccc(Nc2ncc3c(=O)n(-c4ccccc4Cl)nc(-c4ccccc4)c3n2)cc1 [Example 168, 6-(2-chlorophenyl)-2-{[4-(2-oxopyrrolidin-1-yl)phenyl]amino}-8-phenylpyrimido[4,5-d]pyridazin-5(6H)-one]
4 | 2 | C=CCn1nc(-c2ccccc2)c2nc(Nc3ccc(N4CCN(C(C)C)CC4)c(C)c3)ncc2c1=O [Example 169, 6-allyl-2-{[4-(4-isopropylpiperazin-1-yl)-3-methylphenyl]amino}-8-phenylpyrimido[4,5-d]pyridazin-5(6H)-one]
5 | 0.7 | Cc1cc(Nc2ncc3c(=O)n(-c4ccccc4C)nc(-c4ccccc4)c3n2)ccc1N1CCN(C(C)C)CC1 [Example 170, 2-{[4-(4-isopropylpiperazin-1-yl)-3-methylphenyl]amino}-6-(2-methylphenyl)-8-phenylpyrimido[4,5-d]pyridazin-5(6H)-one]
6 | 0.6 | Cc1ccccc1-n1nc(-c2ccccc2)c2nc(Nc3ccc4c(c3)CN(C)CC4)ncc2c1=O [Example 171, 6-(2-methylphenyl)-2-[(2-methyl-1,2,3,4-tetrahydroisoquinolin-7-yl)amino]-8-phenylpyrimido[4,5-d]pyridazin-5(6H)-one]
7 | 2.5 | C=CCn1nc(-c2ccccc2)c2nc(Nc3ccc4c(c3)CN(C)CC43CC3)ncc2c1=O [Example 172, 6-allyl-2-[(2′-methyl-2′,3′-dihydro-1′H-spiro[cyclopropane-1,4′-isoquinolin]-7′-yl)amino]-8-phenylpyrimido[4,5-d]pyridazin-5(6H)-one]
8 | 0.4 | Cc1ccccc1-n1nc(-c2ccccc2)c2nc(Nc3ccc4c(c3)CN(C)CC43CC3)ncc2c1=O [Example 173, 2-[(2′-methyl-2′,3′-dihydro-1′H-spiro[cyclopropane-1,4′-isoquinolin]-7′-yl)amino]-6-(2-methylphenyl)-8-phenylpyrimido[4,5-d]pyridazin-5(6H)-one]
9 | 0.1 | COc1cc(Nc2ncc3c(=O)n(-c4ccccc4Cl)nc(-c4cccs4)c3n2)ccc1N1CCN(C(C)C)CC1 [Example 174, 6-(2-chlorophenyl)-2-{[4-(4-isopropylpiperazin-1-yl)-3-methoxyphenyl]amino}-8-(2-thienyl)pyrimido[4,5-d]pyridazin-5(6H)-one]
10 | 0.2 | CC(=O)c1cccc(-c2nn(-c3c(Cl)cccc3Cl)c(=O)c3cnc(Nc4ccc(N5CCN(C)CC5)cc4)nc23)n1 [Example 175, 8-(6-acetylpyridin-2-yl)-6-(2,6-dichlorophenyl)-2-{[4-(4-methylpiperazin-1-yl)phenyl]amino}pyrimido[4,5-d]pyridazin-5(6H)-one]
11 | 36 | CCC(O)(CC)c1cccc(-c2nn(-c3c(Cl)cccc3Cl)c(=O)c3cnc(Nc4ccc(N5CCN(C)CC5)cc4)nc23)n1 [Example 176, 6-(2,6-dichlorophenyl)-8-[6-(3-hydroxypentan-3-yl)pyridin-2-yl]-2-{[4-(4-methylpiperazin-1-yl)phenyl]amino}pyrimido[4,5-d]pyridazin-5(6H)-one]
12 | 19 | CN1CCN(c2ccc(Nc3ncc4c(=O)n(-c5ccccc5)nc(-c5ccncn5)c4n3)cc2)CC1 [Example 177, 2-{[4-(4-methylpiperazin-1-yl)phenyl]amino}-6-phenyl-8-(pyrimidin-4-yl)pyrimido[4,5-d]pyridazin-5(6H)-one]
13 | 2 | CN1CCN(c2ccc(Nc3ncc4c(=O)n(-c5ccccc5Cl)nc(-c5ccncn5)c4n3)cc2)CC1 [Example 178, 6-(2-chlorophenyl)-2-{[4-(4-methylpiperazin-1-yl)phenyl]amino}-8-(pyrimidin-4-yl)pyrimido[4,5-d]pyridazin-5(6H)-one]
14 | 0.1 | CN1CCN(c2ccc(Nc3ncc4c(=O)n(-c5c(Cl)cccc5Cl)nc(-c5ccncn5)c4n3)cc2)CC1 [Example 179, 6-(2,6-dichlorophenyl)-2-{[4-(4-methylpiperazin-1-yl)phenyl]amino}-8-(pyrimidin-4-yl)pyrimido[4,5-d]pyridazin-5(6H)-one]
15 | 2 | CN1CCN(c2ccc(Nc3ncc4c(=O)n(-c5c(Cl)cccc5Cl)nc(-c5cccc(N6CCCC6)n5)c4n3)cc2)CC1 [Example 180, 6-(2,6-dichlorophenyl)-2-{[4-(4-methylpiperazin-1-yl)phenyl]amino}-8-[6-(pyrrolidin-1-yl)pyridin-2-yl]pyrimido[4,5-d]pyridazin-5(6H)-on]
16 | 6 | CN1CCN(c2ccc(Nc3ncc4c(=O)n(-c5ccccc5Cl)nc(-c5cccc(N6CCCC6)n5)c4n3)cc2)CC1 [Example 181, 6-(2-chlorophenyl)-2-{[4-(4-methylpiperazin-1-yl)phenyl]amino}-8-[6-(pyrrolidin-1-yl)pyridin-2-yl]pyrimido[4,5-d]pyridazin-5(6H)-one]
17 | 12 | Cc1ccccc1-n1nc(-c2cccc(N3CCCC3)n2)c2nc(Nc3ccc(N4CCN(C)CC4)cc3)ncc2c1=O [Example 182, 6-(2-methylphenyl)-2-{[4-(4-methylpiperazin-1-yl)phenyl]amino}-8-[6-(pyrrolidin-1-yl)pyridin-2-yl]pyrimido[4,5-d]pyridazin-5(6H)-one]
18 | 0.02 | CNCc1cccc(-c2nn(-c3c(Cl)cccc3Cl)c(=O)c3cnc(Nc4ccc(N5CCN(C)CC5)cc4)nc23)c1 [Example 183, 6-(2,6-dichlorophenyl)-8-{3-[(methylamino)methyl]phenyl}-2-{[4-(4-methylpiperazin-1-yl)phenyl]amino}pyrimido[4,5-d]pyridazin-5(6H)-one]
19 | 0.03 | CN(C)Cc1cccc(-c2nn(-c3c(Cl)cccc3Cl)c(=O)c3cnc(Nc4ccc(N5CCN(C)CC5)cc4)nc23)c1 [Example 184, 6-(2,6-dichlorophenyl)-8-{3-[(dimethylamino)methyl]phenyl}-2-{[4-(4-methylpiperazin-1-yl)phenyl]amino}pyrimido[4,5-d]pyridazin-5(6H)-one]
20 | 0.04 | CC(=O)c1cccc(-c2nn(-c3c(Cl)cccc3Cl)c(=O)c3cnc(Nc4ccc(N5CCN(C)CC5)cc4)nc23)c1 [Example 185, 8-(3-acetylphenyl)-6-(2,6-dichlorophenyl)-2-{[4-(4-methylpiperazin-1-yl)phenyl]amino}pyrimido[4,5-d]pyridazin-5(6H)-one]
21 | 0.02 | CNC(C)c1cccc(-c2nn(-c3c(Cl)cccc3Cl)c(=O)c3cnc(Nc4ccc(N5CCN(C)CC5)cc4)nc23)c1 (stereo not shown) [Example 186, 6-(2,6-dichlorophenyl)-8-{3-[1-(methylamino)ethyl]phenyl}-2-{[4-(4-methylpiperazin-1-yl)phenyl]amino}pyrimido[4,5-d]pyridazin-5(6H)-one]
22 | 1800 | CN1CCN(c2ccc(Nc3ncc4c(=O)n(C)nc(C5CC(F)(F)C5)c4n3)cc2)CC1 [Example 187, 8-(3,3-difluorocyclobutyl)-6-methyl-2-{[4-(4-methylpiperazin-1-yl)phenyl]amino}pyrimido[4,5-d]pyridazin-5(6H)-one]
